Assay results: patent publication US10478501B2, “Method of treating disorders using a pharmaceutical composition of oligopeptides” (Merck Patent GmbH, priority 2011, dated 2019)

Assay: Water Vapour Sorption (dynamic vapour experiments)
Type: physicochemical
Conditions: 25° C., up to 98% relative humidity, acc. to Ph. Eur. criteria
Text: Preferably, the anhydrates as described herein and especially the crystalline form A1 can be characterised, alternatively or additionally, by dynamic vapour experiments. The results can be obtained by standard techniques as described in Rolf Hilfiker, ‘Polymorphism in the Pharmaceutical Industry’, Wiley-VCH. Weinheim 2006 (Chapter 9: Water Vapour Sorption, and references therein). […] Eur. criteria.

hygroscopicity (Water Vapour Sorption behaviour): non-hygroscopic
Structure (SMILES): CC(C)[C@H]1C(=O)N[C@@H](CCCNC(=N)N)C(=O)NCC(=O)N[C@@H](CC(=O)O)C(=O)N[C@H](Cc2ccccc2)C(=O)N1C [crystalline form A1, cyclo-(Arg-Gly-Asp-DPhe-NMeVal)]
